Tested on: Plasmodium berghei
Experiment: Luciferase/luciferin-expressing antifolate-resistant parasites were used to infect a culture of HepG2 cells that were pre-incubated with compounds. Infected hepatocytes emit light due to the luciferase reaction. Assay results are presented as the percent inhibition of light emission compared to control. […]
Type: functional
Conditions: sporozoite; for IC90: read-out: LUCIFERASE INFECTION ASSAY - IC90

NC(=O)C(C(=O)/C=C/c1ccc(Cl)cc1)=C1SCCS1
IC50 (HEPG2TOX_HILL_SLOPE 2.58, HEPG2TOX_R_SQUARED 0.837, PBLUC_HILL_SLOPE 4.23, PBLUC_R_SQUARED 0.508, read-out: LUCIFERASE INFECTION ASSAY - IC50): 4.47 µM
IC90: 7.51 µM

Cc1ccc(CSc2nccc(-c3c(C)nc4ccccn34)n2)cc1
IC50 (HEPG2TOX_HILL_SLOPE 2.56, HEPG2TOX_R_SQUARED 0.969, PBLUC_HILL_SLOPE 4.1, PBLUC_R_SQUARED 0.204, read-out: LUCIFERASE INFECTION ASSAY - IC50): 6.17 µM
IC90: > 9.53 µM

N#C/C(=N/Nc1ccc(OC(F)(F)F)cc1)C(N)=S
IC50 (HEPG2TOX_HILL_SLOPE 2.59, HEPG2TOX_R_SQUARED 0.943, PBLUC_HILL_SLOPE 11.1, PBLUC_R_SQUARED 0.624, read-out: LUCIFERASE INFECTION ASSAY - IC50): 3.57 µM
IC90: 4.35 µM

Oc1c(-c2cc(C(F)(F)F)[nH]n2)ccc2ccccc12
IC50 (HEPG2TOX_HILL_SLOPE 2.58, HEPG2TOX_R_SQUARED 0.339, PBLUC_HILL_SLOPE 10.9, PBLUC_R_SQUARED 0.613, read-out: LUCIFERASE INFECTION ASSAY - IC50): 3.51 µM
IC90: 4.29 µM

COc1cccc(-c2ccc3ncc(-c4ccc5c(c4)OCO5)n3n2)c1
IC50 (HEPG2TOX_HILL_SLOPE 2.64, HEPG2TOX_R_SQUARED 0.763, PBLUC_HILL_SLOPE 3.7, PBLUC_R_SQUARED 0.498, read-out: LUCIFERASE INFECTION ASSAY - IC50): 4.97 µM
IC90: 9 µM

CC1CCN(Cc2csc(NC(=O)c3ccc(SCc4cscn4)cc3)n2)CC1
IC50 (HEPG2TOX_HILL_SLOPE 2.61, HEPG2TOX_R_SQUARED 0.966, PBLUC_HILL_SLOPE 9.48, PBLUC_R_SQUARED 0.381, read-out: LUCIFERASE INFECTION ASSAY - IC50): 7.74 µM
IC90: 9.76 µM

C=CCN(c1ccccc1OC)S(=O)(=O)c1ccc(Cl)c(C(=O)Nc2nc3ccccc3[nH]2)c1
IC50 (HEPG2TOX_HILL_SLOPE 2.58, HEPG2TOX_R_SQUARED 0.695, PBLUC_HILL_SLOPE 1.17, PBLUC_R_SQUARED 0.361, read-out: LUCIFERASE INFECTION ASSAY - IC50): 2.23 µM
IC90: > 10 µM

Cc1ccc(-c2nn(-c3ncc(Cl)cc3Cl)c(=O)c3ccccc23)cc1
IC50 (HEPG2TOX_HILL_SLOPE 2.58, HEPG2TOX_R_SQUARED 0.712, read-out: LUCIFERASE INFECTION ASSAY - IC50): > 10 µM
IC90: > 10 µM

O=C(NNC(=O)c1cnc2ccccc2n1)c1ccccc1
IC50 (HEPG2TOX_HILL_SLOPE 2.59, HEPG2TOX_R_SQUARED 0.855, PBLUC_HILL_SLOPE 4.42, PBLUC_R_SQUARED 0.625, read-out: LUCIFERASE INFECTION ASSAY - IC50): 5.53 µM
IC90: 9.09 µM

COC(=O)c1ccc(CNC(=O)NCCN2c3ccccc3CCC2C)cc1 (configuration not stated)
IC50 (HEPG2TOX_HILL_SLOPE 2.63, HEPG2TOX_R_SQUARED 0.63, PBLUC_HILL_SLOPE 12, PBLUC_R_SQUARED 0.668, read-out: LUCIFERASE INFECTION ASSAY - IC50): 3.23 µM
IC90: 3.88 µM

Cc1ccc(-n2nnnc2SCc2c(F)cccc2Cl)c(C)c1
IC50 (HEPG2TOX_HILL_SLOPE 2.61, HEPG2TOX_R_SQUARED 0.917, PBLUC_HILL_SLOPE 6.38, PBLUC_R_SQUARED 0.299, read-out: LUCIFERASE INFECTION ASSAY - IC50): 8.85 µM
IC90: > 9.46 µM

Cc1ccc(S(=O)(=O)NN(C)c2nc3ccccc3nc2C(F)(F)F)cc1
IC50 (HEPG2TOX_HILL_SLOPE 2.57, HEPG2TOX_R_SQUARED 0.987, PBLUC_HILL_SLOPE 18.2, PBLUC_R_SQUARED 0.483, read-out: LUCIFERASE INFECTION ASSAY - IC50): 2.66 µM
IC90: 3.01 µM

Fc1ccc(-c2csc3ncnc(Sc4nnnn4-c4ccccc4)c23)cc1
IC50 (HEPG2TOX_HILL_SLOPE 2.6, HEPG2TOX_R_SQUARED 0.978, PBLUC_HILL_SLOPE 15.6, PBLUC_R_SQUARED 0.498, read-out: LUCIFERASE INFECTION ASSAY - IC50): 3.07 µM
IC90: 3.53 µM

O=C(C1=NNCC1c1ccccc1)c1cc2ccccc2c2ccccc12 (configuration not stated)
IC50 (HEPG2TOX_HILL_SLOPE 2.61, HEPG2TOX_R_SQUARED 0.965, PBLUC_HILL_SLOPE 1.24, PBLUC_R_SQUARED 0.535, read-out: LUCIFERASE INFECTION ASSAY - IC50): 3.17 µM
IC90: > 9.42 µM

O=C(c1c[nH]c(-c2ccnc(N3CCCC3)c2)c1)c1ccccc1O
IC50 (HEPG2TOX_HILL_SLOPE 2.58, 1.58, HEPG2TOX_R_SQUARED 0.907, 0.987, PBLUC_HILL_SLOPE 3.48, 1.53, PBLUC_R_SQUARED 0.289, 0.786, read-out: LUCIFERASE INFECTION ASSAY - IC50): 3.06 µM
IC90: 7.71 µM

Cc1ccccc1-c1cn2c(-c3cccc(O)c3)cnc2cn1
IC50 (HEPG2TOX_HILL_SLOPE 2.6, HEPG2TOX_R_SQUARED 0.936, PBLUC_HILL_SLOPE 3.74, PBLUC_R_SQUARED 0.417, read-out: LUCIFERASE INFECTION ASSAY - IC50): 4.82 µM
IC90: 8.68 µM

O=C(COC(=O)c1cc(-c2ccccc2)c(N2CCOCC2)s1)NCc1cccs1
IC50 (HEPG2TOX_HILL_SLOPE 2.63, HEPG2TOX_R_SQUARED 0.904, PBLUC_HILL_SLOPE 1.69, PBLUC_R_SQUARED 0.47, read-out: LUCIFERASE INFECTION ASSAY - IC50): 2 µM
IC90: 7.35 µM

CCC(C)NC(=O)c1c(NC(=O)c2ccc(F)c(Cl)c2)nc2ccc(C)cn12 (configuration not stated)
IC50 (HEPG2TOX_HILL_SLOPE 2.61, HEPG2TOX_R_SQUARED 0.962, PBLUC_HILL_SLOPE 2.74, PBLUC_R_SQUARED 0.471, read-out: LUCIFERASE INFECTION ASSAY - IC50): 2.67 µM
IC90: 5.96 µM

COc1ccc(CN2CCN(c3ncc(C(=O)Nc4ccc5c(c4)OCO5)s3)C2=O)cc1
IC50 (HEPG2TOX_HILL_SLOPE 2.58, HEPG2TOX_R_SQUARED 0.97, PBLUC_HILL_SLOPE 17.4, PBLUC_R_SQUARED 0.0851, read-out: LUCIFERASE INFECTION ASSAY - IC50): 3.65 µM
IC90: 4.14 µM

O=C1C(=O)N(CN2CCc3sccc3C2c2ccccc2)c2ccc(F)cc21 (configuration not stated)
IC50 (HEPG2TOX_HILL_SLOPE 2.62, HEPG2TOX_R_SQUARED 0.103, PBLUC_HILL_SLOPE 2.21, PBLUC_R_SQUARED 0.632, read-out: LUCIFERASE INFECTION ASSAY - IC50): 0.929 µM
IC90: 2.51 µM

C/C(=N\NC(=S)Nc1ccc(Cl)cc1)c1ccn[nH]1
IC50 (HEPG2TOX_HILL_SLOPE 2.63, HEPG2TOX_R_SQUARED 0.844, PBLUC_HILL_SLOPE 3.05, PBLUC_R_SQUARED 0.682, read-out: LUCIFERASE INFECTION ASSAY - IC50): 2.19 µM
IC90: 4.51 µM

Cc1onc(-c2ccc(Cl)cc2Cl)c1-c1csc(Nc2cc(C(F)(F)F)cc(C(F)(F)F)c2)n1
IC50 (HEPG2TOX_HILL_SLOPE 2.62, HEPG2TOX_R_SQUARED 0.945, PBLUC_HILL_SLOPE 2.66, PBLUC_R_SQUARED 0.706, read-out: LUCIFERASE INFECTION ASSAY - IC50): 1.19 µM
IC90: 2.73 µM

COc1ccc(-c2csc3ncnc(NCc4ccc(-n5ccnc5)nc4)c23)cc1
IC50 (HEPG2TOX_HILL_SLOPE 2.62, HEPG2TOX_R_SQUARED 0.957, PBLUC_HILL_SLOPE 10.9, PBLUC_R_SQUARED 0.671, read-out: LUCIFERASE INFECTION ASSAY - IC50): 8.17 µM
IC90: 10 µM

O=S(=O)(Nc1cc(C(F)(F)F)cc(C(F)(F)F)c1)c1cc(Cl)ccc1Cl
IC50 (HEPG2TOX_HILL_SLOPE 2.59, HEPG2TOX_R_SQUARED 0.793, PBLUC_HILL_SLOPE 6.41, PBLUC_R_SQUARED 0.152, read-out: LUCIFERASE INFECTION ASSAY - IC50): 6.18 µM
IC90: > 7.53 µM

COc1ccc(CNc2ccc3ncc(-c4ccc(OC)c(OC)c4)n3n2)cc1
IC50 (HEPG2TOX_HILL_SLOPE 2.6, HEPG2TOX_R_SQUARED 0.69, PBLUC_HILL_SLOPE 12.3, PBLUC_R_SQUARED 0.459, read-out: LUCIFERASE INFECTION ASSAY - IC50): 4 µM
IC90: 4.78 µM

c1ccc(-n2ncc3c(N4CCCC4c4ccc5c(c4)OCCO5)ncnc32)cc1 (configuration not stated)
IC50 (HEPG2TOX_HILL_SLOPE 2.6, HEPG2TOX_R_SQUARED 0.193, PBLUC_HILL_SLOPE 3.44, PBLUC_R_SQUARED 0.735, read-out: LUCIFERASE INFECTION ASSAY - IC50): 7.29 µM
IC90: > 10 µM

O=C(Nc1ccc(-c2nc3ccccc3[nH]2)cc1)c1cccc(S(=O)(=O)NC2CC2)c1
IC50 (HEPG2TOX_HILL_SLOPE 2.58, HEPG2TOX_R_SQUARED 0.64, PBLUC_HILL_SLOPE 5.30, 5.83, PBLUC_R_SQUARED 0.508, 0.438, read-out: LUCIFERASE INFECTION ASSAY - IC50): 2.03 µM
IC90: 3 µM

CCCCc1ccc2nc(NC(=O)c3cccnc3-n3cncn3)sc2c1
IC50 (HEPG2TOX_HILL_SLOPE 2.58, HEPG2TOX_R_SQUARED 0.943, PBLUC_HILL_SLOPE 1.45, PBLUC_R_SQUARED 0.435, read-out: LUCIFERASE INFECTION ASSAY - IC50): 4 µM
IC90: > 10 µM

CN(C)c1nc(N)nc(CSc2nc(N)c3c4c(sc3n2)CCCC4)n1
IC50 (HEPG2TOX_HILL_SLOPE 2.63, HEPG2TOX_R_SQUARED 0.627, PBLUC_HILL_SLOPE 2.91, PBLUC_R_SQUARED 0.214, read-out: LUCIFERASE INFECTION ASSAY - IC50): 9.21 µM
IC90: > 10 µM

CCOC(=O)c1c(C)[nH]c(C(=O)COC(=O)Cn2[nH]c(=O)c3ccccc3c2=O)c1C
IC50 (HEPG2TOX_HILL_SLOPE 2.60, 1.21, HEPG2TOX_R_SQUARED 0.645, 0.988, read-out: LUCIFERASE INFECTION ASSAY - IC50): > 10 µM
IC90: > 10 µM

c1cncc(CCNc2nccn3c(-c4ccc5ccccc5c4)cnc23)c1
IC50 (HEPG2TOX_HILL_SLOPE 2.6, HEPG2TOX_R_SQUARED 0.953, PBLUC_HILL_SLOPE 75.6, PBLUC_R_SQUARED 0.403, read-out: LUCIFERASE INFECTION ASSAY - IC50): 4.99 µM
IC90: 5.14 µM

Source: ChEMBL document CHEMBL4483862, “Open-source discovery of chemical leads for next-generation chemoprotective antimalarials” (2018)
